Source: ChEMBL document CHEMBL3112559, “Photodynamic inactivation of bioluminescent Escherichia coli by neutral and cationic pyrrolidine-fused chlorins and isobacteriochlorins” (Bioorg Med Chem Lett, 2014)
The source made the active and inactive calls. No cut-off for these calls is given here.

Assays:
Escherichia coli [1] = assay: Antibacterial activity against Escherichia coli assessed as log reduction of bioluminescence at 1 uM incubated for 30 mins followed by 10 J cm'-2 laser light irradiation relative to control; type: functional
Staphylococcus aureus = assay: Antibacterial activity against Staphylococcus aureus assessed as log reduction of bioluminescence at 1 uM incubated for 30 mins followed by 10 J cm'-2 laser light irradiation relative to control; type: functional
Escherichia coli [2] = assay: Antibacterial activity against Escherichia coli transfected with Vibrio fischeri lux operon assessed as log reduction of bioluminescence at 5 uM incubated for 10 mins in dark followed by 43.2 J cm'-2 white light irradiation for 180 mins by luminometry relative to control; type: functional
Escherichia coli [3] = assay: Dark toxicity in recombinant Escherichia coli transfected with Vibrio fischeri lux operon at 5 uM after 10 mins by luminometry; type: organism-based; details: in vivo
Escherichia coli [4] = assay: Antibacterial activity against Escherichia coli transfected with Vibrio fischeri lux operon assessed as log reduction of bioluminescence at 20 uM incubated for 10 mins in dark followed by 36 J cm'-2 white light irradiation for 150 mins by luminometry relative to control; type: functional
Escherichia coli [5] = assay: Dark toxicity in recombinant Escherichia coli transfected with Vibrio fischeri lux operon at 20 uM after 10 mins by luminometry; type: organism-based; details: in vivo
Escherichia coli [6] = assay: Antibacterial activity against Escherichia coli transfected with Vibrio fischeri lux operon assessed as log reduction of bioluminescence at 20 uM incubated for 10 mins in dark followed by 43.2 J cm'-2 white light irradiation for 180 mins by luminometry relative to control; type: functional

Compound	FC (Escherichia coli [2])	Activity (Escherichia coli [5])	other results
CC1(C)Cc2cc3[nH]c(cc4nc(cc5[nH]c(cc1n2)cc5C(=O)NCCC[N+](C)(CCC[N+](C)(C)C)CCC[N+](C)(C)C)CC4(C)C)cc3C(=O)NCCC[N+](C)(CCC[N+](C)(C)C)CCC[N+](C)(C)C			FC (Escherichia coli [1]): 6; FC (Staphylococcus aureus): 6
CN1CC2c3nc(c(-c4c(F)c(F)c(F)c(F)c4F)c4ccc([nH]4)c(-c4c(F)c(F)c(F)c(F)c4F)c4nc(c(-c5c(F)c(F)c(F)c(F)c5F)c5ccc([nH]5)c3-c3c(F)c(F)c(F)c(F)c3F)C=C4)C2C1 (configuration not stated)	0.57		Activity (Escherichia coli [3]): Non-toxic
C[N+]1(C)CC2c3nc(c(-c4c(F)c(F)c(F)c(F)c4F)c4ccc([nH]4)c(-c4c(F)c(F)c(F)c(F)c4F)c4nc(c(-c5c(F)c(F)c(F)c(F)c5F)c5ccc([nH]5)c3-c3c(F)c(F)c(F)c(F)c3F)C=C4)C2C1.[I-] (configuration not stated)	0.77	Non-toxic	Activity (Escherichia coli [4]): Active
C[N+]1(C)CC2c3nc(c(-c4c(F)c(F)c(F)c(F)c4F)c4ccc([nH]4)c(-c4c(F)c(F)c(F)c(F)c4F)c4nc(c(-c5c(F)c(F)c(F)c(F)c5F)c5[nH]c(c3-c3c(F)c(F)c(F)c(F)c3F)C3C[N+](C)(C)CC53)C=C4)C2C1.[I-].[I-] (configuration not stated)	>5	Non-toxic	FC (Escherichia coli [4]): 6.1
CN1CC2c3nc(c(-c4c(F)c(F)c(F)c(F)c4F)c4ccc([nH]4)c(-c4c(F)c(F)c(F)c(F)c4F)c4nc(c(-c5c(F)c(F)c(F)c(F)c5F)c5[nH]c(c3-c3c(F)c(F)c(F)c(F)c3F)C3CN(C)CC53)C=C4)C2C1 (configuration not stated)		Non-toxic	FC (Escherichia coli [6]): 0.24
